# Test results from the supplement of paper PMC10307832.
# Assays:
# Experiment in all cases: relative viability (nuclei count vs DMSO), 5 days (fraction); higher = more cells survive
# [1] = system: NCI-H1792
# Method in brief: (§1)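 Relative viability was taken as the ratio of nuclei in treated wells to nuclei in vehicle wells. Lung cancer cell lines in 1536-well plates received compounds by pin tool one day after seeding, either one drug alone or a fixed anchor-drug dose plus five library-drug doses (not always all listed) in √10 steps. Nuclei were counted on 4× images after 5 days of treatment, and values are medians of duplicate plates.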
# [2] = system: SW 900
# Method in brief: as §1
# [3] = system: RERF-LC-KJ
# Method in brief: as §1
# [4] = system: LCLC-103H
# Method in brief: as §1
# [5] = system: NCI-H520
# Method in brief: as §1
# [6] = system: NCI-H2347
# Method in brief: as §1
# [7] = system: NCI-H2170
# Method in brief: as §1
# [8] = system: NCI-H661
# Method in brief: as §1
# [9] = system: LXF-289
# Method in brief: as §1
# [10] = system: NCI-H1355
# Method in brief: as §1
# [11] = system: NCI-H1651
# Method in brief: as §1
# [12] = system: NCI-H1915
# Method in brief: as §1
# [13] = system: NCI-H3122
# Method in brief: as §1
# [14] = system: SK-MES-1
# Method in brief: as §1
# [15] = system: NCI-H460
# Method in brief: as §1
# [16] = system: NCI-H441
# Method in brief: as §1
# [17] = system: NCI-H650
# Method in brief: as §1
# [18] = system: NCI-H1755
# Method in brief: as §1
# [19] = system: PC-14
# Method in brief: as §1
# [20] = system: NCI-H322M
# Method in brief: as §1
# [21] = system: NCI-H727
# Method in brief: as §1
# [22] = system: NCI-H596
# Method in brief: as §1
smiles,measurement,setting,value
O=C(O)c1ccc(-c2c[nH]c3ncc(-c4ccccc4)cc23)cc1C1CCCC1 + CC(=O)c1c(C)c2cnc(Nc3ccc(N4CCNCC4)cn3)nc2n(C2CCCC2)c1=O [Palbociclib] (partner 0.5 µM),relative viability,[1]; first compound 0.1265 µM,0.681
same,relative viability,[1]; first compound 0.4 µM,0.657
same,relative viability,[1]; first compound 1.265 µM,0.691
same,relative viability,[2]; first compound 0.04 µM,0.523
same,relative viability,[2]; first compound 0.1265 µM,0.521
same,relative viability,[2]; first compound 0.4 µM,0.578
same,relative viability,[2]; first compound 1.265 µM,0.277
same,relative viability,[3]; first compound 0.04 µM,1.01
same,relative viability,[3]; first compound 0.1265 µM,1.02
same,relative viability,[3]; first compound 0.4 µM,0.97
same,relative viability,[3]; first compound 1.265 µM,0.875
same,relative viability,[4]; first compound 0.04 µM,0.412
same,relative viability,[4]; first compound 0.1265 µM,0.486
same,relative viability,[4]; first compound 0.4 µM,0.465
same,relative viability,[4]; first compound 1.265 µM,0.469
same,relative viability,[5]; first compound 0.04 µM,0.192
same,relative viability,[5]; first compound 0.1265 µM,0.217
same,relative viability,[5]; first compound 0.4 µM,0.226
same,relative viability,[5]; first compound 1.265 µM,0.182
same,relative viability,[6]; first compound 0.04 µM,0.453
same,relative viability,[6]; first compound 0.1265 µM,0.446
same,relative viability,[6]; first compound 0.4 µM,0.386
same,relative viability,[6]; first compound 1.265 µM,0.438
same,relative viability,[7]; first compound 0.04 µM,0.387
same,relative viability,[7]; first compound 0.1265 µM,0.438
same,relative viability,[7]; first compound 0.4 µM,0.39
same,relative viability,[7]; first compound 1.265 µM,0.389
same,relative viability,[8]; first compound 0.04 µM,0.414
same,relative viability,[8]; first compound 0.1265 µM,0.411
same,relative viability,[8]; first compound 0.4 µM,0.406
same,relative viability,[8]; first compound 1.265 µM,0.389
same,relative viability,[9]; first compound 0.04 µM,0.573
same,relative viability,[9]; first compound 0.1265 µM,0.584
same,relative viability,[9]; first compound 0.4 µM,0.57
same,relative viability,[9]; first compound 1.265 µM,0.521
same,relative viability,[10]; first compound 0.04 µM,0.393
same,relative viability,[10]; first compound 0.1265 µM,0.406
same,relative viability,[10]; first compound 0.4 µM,0.407
same,relative viability,[10]; first compound 1.265 µM,0.395
same,relative viability,[11]; first compound 0.04 µM,0.534
same,relative viability,[11]; first compound 0.1265 µM,0.524
same,relative viability,[11]; first compound 0.4 µM,0.514
same,relative viability,[11]; first compound 1.265 µM,0.475
same,relative viability,[12]; first compound 0.04 µM,0.553
same,relative viability,[12]; first compound 0.1265 µM,0.527
same,relative viability,[12]; first compound 0.4 µM,0.452
same,relative viability,[12]; first compound 1.265 µM,0.428
same,relative viability,[13]; first compound 0.04 µM,0.201
same,relative viability,[13]; first compound 0.1265 µM,0.175
same,relative viability,[13]; first compound 0.4 µM,0.174
same,relative viability,[13]; first compound 1.265 µM,0.198
same,relative viability,[14]; first compound 0.04 µM,0.335
same,relative viability,[14]; first compound 0.1265 µM,0.288
same,relative viability,[14]; first compound 0.4 µM,0.303
same,relative viability,[14]; first compound 1.265 µM,0.265
same,relative viability,[15]; first compound 0.04 µM,0.274
same,relative viability,[15]; first compound 0.1265 µM,0.203
same,relative viability,[15]; first compound 0.4 µM,0.23
same,relative viability,[15]; first compound 1.265 µM,0.146
same,relative viability,[16]; first compound 0.04 µM,0.248
same,relative viability,[16]; first compound 0.1265 µM,0.232
same,relative viability,[16]; first compound 0.4 µM,0.223
same,relative viability,[16]; first compound 1.265 µM,0.22
same,relative viability,[17]; first compound 0.04 µM,0.32
same,relative viability,[17]; first compound 0.1265 µM,0.344
same,relative viability,[17]; first compound 0.4 µM,0.312
same,relative viability,[17]; first compound 1.265 µM,0.279
same,relative viability,[18]; first compound 0.04 µM,0.434
same,relative viability,[18]; first compound 0.1265 µM,0.495
same,relative viability,[18]; first compound 0.4 µM,0.417
same,relative viability,[18]; first compound 1.265 µM,0.48
same,relative viability,[19]; first compound 0.04 µM,0.473
same,relative viability,[19]; first compound 0.1265 µM,0.532
same,relative viability,[19]; first compound 0.4 µM,0.396
same,relative viability,[19]; first compound 1.265 µM,0.486
same,relative viability,[20]; first compound 0.04 µM,0.466
same,relative viability,[20]; first compound 0.1265 µM,0.461
same,relative viability,[20]; first compound 0.4 µM,0.448
same,relative viability,[20]; first compound 1.265 µM,0.461
same,relative viability,[21]; first compound 0.04 µM,0.676
same,relative viability,[21]; first compound 0.1265 µM,0.662
same,relative viability,[21]; first compound 0.4 µM,0.652
same,relative viability,[21]; first compound 1.265 µM,0.638
O=C(O)c1ccc(-c2c[nH]c3ncc(-c4ccccc4)cc23)cc1C1CCCC1 + NC(=O)Nc1cc(-c2cccc(F)c2)sc1C(=O)N[C@H]1CCCNC1 [AZD7762] (partner 0.2 µM),relative viability,[1]; first compound 0.04 µM,0.673
same,relative viability,[1]; first compound 0.1265 µM,0.959
same,relative viability,[1]; first compound 0.4 µM,0.94
same,relative viability,[1]; first compound 1.265 µM,0.634
same,relative viability,[2]; first compound 0.04 µM,0.635
same,relative viability,[2]; first compound 0.1265 µM,0.648
same,relative viability,[2]; first compound 0.4 µM,0.755
same,relative viability,[2]; first compound 1.265 µM,0.598
same,relative viability,[3]; first compound 0.04 µM,0.569
same,relative viability,[3]; first compound 0.4 µM,1.06
same,relative viability,[3]; first compound 1.265 µM,0.935
same,relative viability,[4]; first compound 0.04 µM,0.832
same,relative viability,[4]; first compound 0.1265 µM,0.822
same,relative viability,[4]; first compound 0.4 µM,0.846
same,relative viability,[4]; first compound 1.265 µM,0.759
same,relative viability,[6]; first compound 0.04 µM,0.821
same,relative viability,[6]; first compound 0.1265 µM,0.935
same,relative viability,[6]; first compound 0.4 µM,0.797
same,relative viability,[6]; first compound 1.265 µM,0.878
same,relative viability,[7]; first compound 0.04 µM,0.933
same,relative viability,[7]; first compound 0.1265 µM,1.03
same,relative viability,[7]; first compound 0.4 µM,0.895
same,relative viability,[7]; first compound 1.265 µM,0.82
same,relative viability,[9]; first compound 0.04 µM,1.07
same,relative viability,[9]; first compound 0.1265 µM,1.25
same,relative viability,[9]; first compound 0.4 µM,1.02
same,relative viability,[9]; first compound 1.265 µM,0.922
same,relative viability,[10]; first compound 0.04 µM,0.729
same,relative viability,[10]; first compound 0.1265 µM,0.912
same,relative viability,[10]; first compound 0.4 µM,0.856
same,relative viability,[10]; first compound 1.265 µM,0.703
same,relative viability,[11]; first compound 0.04 µM,0.326
same,relative viability,[11]; first compound 0.1265 µM,0.56
same,relative viability,[11]; first compound 0.4 µM,0.551
same,relative viability,[11]; first compound 1.265 µM,0.426
same,relative viability,[12]; first compound 0.04 µM,0.681
same,relative viability,[12]; first compound 0.1265 µM,0.64
same,relative viability,[12]; first compound 0.4 µM,0.77
same,relative viability,[12]; first compound 1.265 µM,0.764
same,relative viability,[13]; first compound 0.04 µM,0.97
same,relative viability,[13]; first compound 0.1265 µM,1.04
same,relative viability,[13]; first compound 0.4 µM,1.05
same,relative viability,[13]; first compound 1.265 µM,0.999
same,relative viability,[15]; first compound 0.04 µM,0.625
same,relative viability,[15]; first compound 0.1265 µM,0.822
same,relative viability,[15]; first compound 0.4 µM,0.886
same,relative viability,[15]; first compound 1.265 µM,0.794
same,relative viability,[16]; first compound 0.04 µM,1.01
same,relative viability,[16]; first compound 0.1265 µM,1.23
same,relative viability,[16]; first compound 0.4 µM,1.11
same,relative viability,[16]; first compound 1.265 µM,1.14
same,relative viability,[17]; first compound 0.04 µM,1.03
same,relative viability,[17]; first compound 0.1265 µM,1.11
same,relative viability,[17]; first compound 0.4 µM,1.02
same,relative viability,[17]; first compound 1.265 µM,0.947
same,relative viability,[18]; first compound 0.04 µM,0.488
same,relative viability,[18]; first compound 0.1265 µM,0.521
same,relative viability,[18]; first compound 0.4 µM,0.547
same,relative viability,[18]; first compound 1.265 µM,0.523
same,relative viability,[19]; first compound 0.04 µM,0.335
same,relative viability,[19]; first compound 0.1265 µM,0.414
same,relative viability,[19]; first compound 0.4 µM,0.407
same,relative viability,[19]; first compound 1.265 µM,0.39
same,relative viability,[22]; first compound 0.04 µM,1.05
same,relative viability,[22]; first compound 0.1265 µM,1.21
same,relative viability,[22]; first compound 0.4 µM,1.08
same,relative viability,[22]; first compound 1.265 µM,1.17
same,relative viability,[20]; first compound 0.04 µM,0.585
same,relative viability,[20]; first compound 0.1265 µM,0.631
same,relative viability,[20]; first compound 0.4 µM,0.625
same,relative viability,[20]; first compound 1.265 µM,0.65
same,relative viability,[21]; first compound 0.04 µM,0.459
same,relative viability,[21]; first compound 0.1265 µM,0.672
same,relative viability,[21]; first compound 0.4 µM,0.679
same,relative viability,[21]; first compound 1.265 µM,0.612
